The supplement of paper PMC10307832

How the values were obtained:
Assay in all cases: relative viability (nuclei count vs DMSO), 5 days (fraction); higher = more cells survive
Daporinad + Navitoclax = compound: O=C(/C=C/c1cccnc1)NCCCCC1CCN(C(=O)c2ccccc2)CC1 [Daporinad] + CC1(C)CCC(c2ccc(Cl)cc2)=C(CN2CCN(c3ccc(C(=O)NS(=O)(=O)c4ccc(N[C@H](CCN5CCOCC5)CSc5ccccc5)c(S(=O)(=O)C(F)(F)F)c4)cc3)CC2)C1 [Navitoclax] (partner 0.5 µM)
How it was run: (§1)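 Lung cancer cell lines in 1536-well plates were dosed by pin tool the day after seeding, either with one drug alone or with a fixed anchor-drug dose plus five library-drug doses (not always all listed) in √10 steps. After 5 days, cells were fixed and their nuclei stained in one step (final 0.05% Triton X-100, 1% formaldehyde, 1 ug/ml Hoechst), then counted on 4× images. Relative viability is the nuclei count in treated wells divided by that in vehicle wells. Values are medians of duplicate plates.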

Daporinad + Pictilisib = compound: O=C(/C=C/c1cccnc1)NCCCCC1CCN(C(=O)c2ccccc2)CC1 [Daporinad] + CS(=O)(=O)N1CCN(Cc2cc3nc(-c4cccc5[nH]ncc45)nc(N4CCOCC4)c3s2)CC1 [Pictilisib] (partner 1 µM)
How it was run: as §1

Daporinad + OSI-027 = compound: O=C(/C=C/c1cccnc1)NCCCCC1CCN(C(=O)c2ccccc2)CC1 [Daporinad] + COc1cccc2cc(-c3nc([C@H]4CC[C@H](C(=O)O)CC4)n4ncnc(N)c34)[nH]c12 [OSI-027] (partner 0.5 µM)
How it was run: as §1

R406 + OSI-027 = compound: COc1cc(Nc2ncc(F)c(Nc3ccc4c(n3)NC(=O)C(C)(C)O4)n2)cc(OC)c1OC [R406] + COc1cccc2cc(-c3nc([C@H]4CC[C@H](C(=O)O)CC4)n4ncnc(N)c34)[nH]c12 [OSI-027] (partner 0.5 µM)
How it was run: as §1

UMC-11
relative viability (Daporinad + Navitoclax; first compound 0.0005 µM): 0.335
relative viability (Daporinad + Navitoclax; first compound 0.001581 µM): 0.33
relative viability (Daporinad + Navitoclax; first compound 0.005 µM): 0.377
relative viability (Daporinad + Navitoclax; first compound 0.01581 µM): 0.288
relative viability (Daporinad + Pictilisib; first compound 0.0005 µM): 0.908
relative viability (Daporinad + Pictilisib; first compound 0.001581 µM): 0.668
relative viability (Daporinad + Pictilisib; first compound 0.005 µM): 0.928
relative viability (Daporinad + Pictilisib; first compound 0.01581 µM): 0.993
relative viability (Daporinad + OSI-027; first compound 0.0005 µM): 0.469
relative viability (Daporinad + OSI-027; first compound 0.001581 µM): 0.55
relative viability (Daporinad + OSI-027; first compound 0.005 µM): 0.567
relative viability (Daporinad + OSI-027; first compound 0.01581 µM): 0.689
relative viability (R406 + OSI-027; first compound 0.08 µM): 0.429
relative viability (R406 + OSI-027; first compound 0.253 µM): 0.517
relative viability (R406 + OSI-027; first compound 0.8 µM): 0.488
relative viability (R406 + OSI-027; first compound 2.53 µM): 0.463
relative viability (R406 + OSI-027; first compound 8 µM): 0.253
